Data reported in patent US20070093969A1, “Molecular nephrotoxicology modeling” (priority 2002, published 2007).
Values belong to the molecule of their own block, whether it stands above or below them.

Experiments:
[1] = test system: patients; conditions: human, in vivo; cited from earlier work
[2] = test system: kidney; conditions: rat; cited from earlier work
[3] = test system: rats; conditions: rat, in vivo; cited from earlier work
[4] = test system: rats; conditions: rat, in vivo; cited from earlier work; remark: listed apart in the source
[5] = test system: glomerular epithelial cell; conditions: rat, in vivo; cited from earlier work
[6] = test system: rats; conditions: rat, in vivo; cited from earlier work; remark: listed apart in the source
[7] = test system: rats; conditions: rat, in vivo; cited from earlier work; remark: listed apart in the source
[8] = test system: mitochondrial respiration; conditions: cited from earlier work
[9] = test system: renal cortex; conditions: cited from earlier work
[10] = test system: patients; conditions: human, in vivo; cited from earlier work; remark: listed apart in the source
[11] = test system: proximal renal tubule; conditions: rat, in vivo; cited from earlier work
[12] = test system: rats; conditions: rat, in vivo; cited from earlier work; remark: listed apart in the source
[13] = test system: rats; conditions: rat, in vivo; cited from earlier work; remark: listed apart in the source
[14] = test system: rabbits; conditions: rabbit, in vivo; cited from earlier work
[15] = test system: rabbits; conditions: rabbit, in vivo; cited from earlier work; remark: listed apart in the source
[16] = test system: kidney tissue gene expression; conditions: rat, in vivo
[17] = test system: kidney tissue; conditions: in vivo; cited from earlier work
[18] = Clinical pathology (clinical chemistry) of dosed rats; assay type: in vivo, male Sprague-Dawley rats; conditions: rats given the high dosage of diflunisal
Experimental: In both the ibuprofen and the diflunisal group, two patients complained of abdominal cramping.
1. Frequency—Prior to necropsy.
2. Number of animals—All surviving animals.
3. Bleeding Procedure—Blood was obtained by puncture of the orbital sinus while under 70% CO2/30% O2 anesthesia.
Collection of Blood Samples—Approximately 0.5 mL of blood was collected into EDTA tubes for evaluation of hematology parameters. Approximately 1 mL of blood was collected into serum separator tubes for clinical chemistry analysis. Approximately 200 uL of plasma was obtained and frozen at […] for test compound/metabolite estimation. An additional ˜2 mL of blood was collected into a 15 mL conical polypropylene vial to which ˜3 mL of Trizol was immediately added. The contents were immediately mixed with a vortex and by repeated inversion. The tubes were frozen in liquid nitrogen and stored at […]

[19] = test system: rat hepatocytes; conditions: cited from earlier work
[20] = test system: mouse; conditions: in vivo; cited from earlier work
[21] = test system: rats; conditions: cited from earlier work
[22] = test system: renal GST-alpha subunit, cytochrome P4502E1; conditions: rat, in vivo; cited from earlier work
[23] = test system: patients; conditions: human, in vivo; cited from earlier work; remark: listed apart in the source
[24] = test system: rats; conditions: rat, in vivo; cited from earlier work; remark: listed apart in the source
[25] = test system: mouse; conditions: in vivo; cited from earlier work; remark: listed apart in the source
[26] = test system: rats and mice; conditions: in vivo; cited from earlier work
[27] = test system: patients; conditions: 90 mg per month; cited from earlier work
[28] = test system: rats; conditions: rat, in vivo; cited from earlier work; remark: listed apart in the source
[29] = test system: rats; conditions: rat, in vivo; cited from earlier work; remark: listed apart in the source
[30] = test system: rats; conditions: rat, in vivo; cited from earlier work; remark: listed apart in the source
[31] = in vivo; cited from earlier work

Molecule: CC(C)(Oc1ccc(C2CC2(Cl)Cl)cc1)C(=O)O (centres unmarked) [Ciprofibrate]
- plasma creatinine and urea levels [1]: elevated

Molecule: O=C(O)c1cc(/N=N/c2ccc(O)c(C(=O)O)c2)ccc1O [Olsalazine]
- kidney findings [2]: interstitial nephritis and tubular necrosis

Molecule: CN(C)c1ncnc2c1ncn2[C@@H]1O[C@H](CO)[C@@H](N)[C@H]1O [PAN, Puromycin aminonucleoside]
- serum albumin concentration [3]: negatively affected
- serum non-esterified fatty acids [3]: increase
- urine protein and renal damage [4]: proteinuria
- glomerular epithelial cell apoptosis [5]: induced

Molecule: CC1CCC(NC(=O)N(CCCl)N=O)CC1 (centres unmarked) [Semustine]
- renal injury [6]: proximal tubule injury and papillary necrosis

Molecule: ClC(Cl)(Cl)Cl [carbon tetrachloride, Carbon tetrachloride]
- glutathione peroxidase activity [7]: significant decrease
- kidney superoxide dismutase and catalase activities [7]: Significant increases

Molecule: O=C(Cc1cccs1)N[C@@H]1C(=O)N2C(C(=O)[O-])=C(C[n+]3ccccc3)CS[C@H]12 [cephaloridine, Cephaloridine]
- mitochondrial respiration and uptake of anionic succinate [8]: reduce
- glutathione reductase [9]: inhibited
- reduced glutathione (GSH) in the renal cortex [9]: depleted

Molecule: Nc1ccn(C[C@@H](CO)OCP(=O)(O)O)c(=O)n1 [cidofovir, Cidofovir]
- patients with dose-dependent asymptomatic proteinuria [10]: Approximately 40%
- patients with elevated serum creatinine levels [10]: 25%

Molecule: N.N.[Cl][Pt][Cl] [cisplatin, Cisplatin (Pt (NH3)2(Cl)2)]
- renal injury [11]: induced renal injury
- food intake [12]: decreased
- urine osmolality [12]: decreased
- urine volume [12]: increase
- serum creatinine levels [13]: elevations

Molecule: CC1=C2C(=CO[C@H](C)[C@H]2C)C(O)=C(C(=O)O)C1=O [citrinin, Citrinin]
- renal ultrastructure [14]: renal alterations
- blood urea nitrogen and serum-creatinine levels [15]: increased
- clinical findings [15]: azotaemia and metabolic acidosis
- creatinine clearance [15]: decreased

Molecule: O=C(O)Cc1ccccc1Nc1c(Cl)cccc1Cl [diclofenac, Diclofenac]
- Tox Group Mean, GLGC Identifier 67 [16]: 1551.30
- Tox Group Mean, GLGC Identifier 665 [16]: 849.30
- Tox Group Mean, GLGC Identifier 725 [16]: 33.60
- Tox Group Mean, GLGC Identifier 1422 [16]: 174.39
- Tox Group Mean, GLGC Identifier 1527 [16]: 51.23
- Tox Group Mean, GLGC Identifier 1529 [16]: 194.31
- Tox Group Mean, GLGC Identifier 1698 [16]: 190.91
- Tox Group Mean, GLGC Identifier 1729 [16]: 81.89
- Tox Group Mean, GLGC Identifier 1847 [16]: 22.26
- Tox Group Mean, GLGC Identifier 1858 [16]: 253.42
- Tox Group Mean, GLGC Identifier 1888 [16]: 101.45
- Tox Group Mean, GLGC Identifier 1894 [16]: 294.35
- Tox Group Mean, GLGC Identifier 2128 [16]: 97.35
- Tox Group Mean, GLGC Identifier 3172 [16]: 36.28
- Tox Group Mean, GLGC Identifier 3439 [16]: 135.79
- Tox Group Mean, GLGC Identifier 3465 [16]: 152.39
- Tox Group Mean, GLGC Identifier 4449 [16]: 156.15
- Tox Group Mean, GLGC Identifier 4661 [16]: 555.94
- Tox Group Mean, GLGC Identifier 5461 [16]: 694.84
- Tox Group Mean, GLGC Identifier 5920 [16]: 1412.80
- Tox Group Mean, GLGC Identifier 5930 [16]: 73.85
- Tox Group Mean, GLGC Identifier 6014 [16]: 183.73
- Tox Group Mean, GLGC Identifier 6046 [16]: 83.37
- Tox Group Mean, GLGC Identifier 6278 [16]: 58.48
- Tox Group Mean, GLGC Identifier 6758 [16]: 59.84
- Tox Group Mean, GLGC Identifier 6782 [16]: 310.65
- Tox Group Mean, GLGC Identifier 6796 [16]: 304.75
- Tox Group Mean, GLGC Identifier 6917 [16]: 111.53
- Tox Group Mean, GLGC Identifier 7299 [16]: 595.57
- Tox Group Mean, GLGC Identifier 7540 [16]: 504.78
- Tox Group Mean, GLGC Identifier 7872 [16]: 63.92
- Tox Group Mean, GLGC Identifier 7936 [16]: 82.66
- Tox Group Mean, GLGC Identifier 7937 [16]: 34.46
- Tox Group Mean, GLGC Identifier 8065 [16]: 236.57
- Tox Group Mean, GLGC Identifier 8099 [16]: 72.23
- Tox Group Mean, GLGC Identifier 8104 [16]: 85.37
- Tox Group Mean, GLGC Identifier 8234 [16]: 22.24
- Tox Group Mean, GLGC Identifier 8759 [16]: 237.31
- Tox Group Mean, GLGC Identifier 8820 [16]: 743.55
- Tox Group Mean, GLGC Identifier 8850 [16]: 175.34
- Tox Group Mean, GLGC Identifier 8888 [16]: 22.26
- Tox Group Mean, GLGC Identifier 9079 [16]: 1099.28
- Tox Group Mean, GLGC Identifier 9520 [16]: 69.60
- Tox Group Mean, GLGC Identifier 10434 [16]: 77.07
- Tox Group Mean, GLGC Identifier 11434 [16]: 181.39
- Tox Group Mean, GLGC Identifier 11755 [16]: 343.83
- Tox Group Mean, GLGC Identifier 12979 [16]: 742.50
- Tox Group Mean, GLGC Identifier 13013 [16]: 32.49
- Tox Group Mean, GLGC Identifier 13485 [16]: 38.32
- Tox Group Mean, GLGC Identifier 13542 [16]: 321.75
- Tox Group Mean, GLGC Identifier 13614 [16]: 497.29
- Tox Group Mean, GLGC Identifier 13966 [16]: 227.19
- Tox Group Mean, GLGC Identifier 14003 [16]: 1575.92
- Tox Group Mean, GLGC Identifier 14346 [16]: 174.62
- Tox Group Mean, GLGC Identifier 14450 [16]: 45.80
- Tox Group Mean, GLGC Identifier 15017 [16]: 2241.27
- Tox Group Mean, GLGC Identifier 15035 [16]: 23.84
- Tox Group Mean, GLGC Identifier 15124 [16]: 1897.22
- Tox Group Mean, GLGC Identifier 15125 [16]: 3102.06
- Tox Group Mean, GLGC Identifier 15379 [16]: 33.32
- Tox Group Mean, GLGC Identifier 15411 [16]: 552.53
- Tox Group Mean, GLGC Identifier 15679 [16]: 309.12
- Tox Group Mean, GLGC Identifier 15761 [16]: 22.22
- Tox Group Mean, GLGC Identifier 15964 [16]: 487.88
- Tox Group Mean, GLGC Identifier 16520 [16]: 174.46
- Tox Group Mean, GLGC Identifier 16521 [16]: 453.74
- Tox Group Mean, GLGC Identifier 16681 [16]: 134.46
- Tox Group Mean, GLGC Identifier 16982 [16]: 1036.49
- Tox Group Mean, GLGC Identifier 17541 [16]: 1839.84
- Tox Group Mean, GLGC Identifier 18246 [16]: 100.99
- Tox Group Mean, GLGC Identifier 19067 [16]: 76.83
- Tox Group Mean, GLGC Identifier 20000 [16]: 24.08
- Tox Group Mean, GLGC Identifier 20457 [16]: 235.87
- Tox Group Mean, GLGC Identifier 20523 [16]: 1004.68
- Tox Group Mean, GLGC Identifier 20864 [16]: 3112.64
- Tox Group Mean, GLGC Identifier 21012 [16]: 445.05
- Tox Group Mean, GLGC Identifier 21014 [16]: 352.43
- Tox Group Mean, GLGC Identifier 21145 [16]: 76.23
- Tox Group Mean, GLGC Identifier 21354 [16]: 640.85
- Tox Group Mean, GLGC Identifier 21491 [16]: 67.51
- Tox Group Mean, GLGC Identifier 22311 [16]: 1255.02
- Tox Group Mean, GLGC Identifier 22321 [16]: 138.89
- Tox Group Mean, GLGC Identifier 23987 [16]: 596.80
- Tox Group Mean, GLGC Identifier 24232 [16]: 48.69
- Tox Group Mean, GLGC Identifier 24566 [16]: 32.95
- Tox Group Mean, GLGC Identifier 24568 [16]: 78.30
- Tox Group Mean, GLGC Identifier 24893 [16]: 20.58
- Tox Group Mean, GLGC Identifier 25106 [16]: 28.05
- Tox Group Mean, GLGC Identifier 26083 [16]: 403.60
- levels of BUN, malondialdehyde (MDA), SOD, and activated Ca2+-Mg2+-endonuclease [17]: elevated

- concentrations of creatinine [18]: increased
Molecule: O=C(O)c1cc(-c2ccc(F)cc2F)ccc1O [diflunisal, Diflunisal]
- LDH leakage ([19]; 500 μM, compared to the control sample): increase
- intracellular ATP concentrations [19]: decreased

Molecule: NNc1nncc2ccccc12 [hydralazine, Hydralazine]
- kidney copper concentrations ([21]; compared to control groups): increased
- manganese and zinc concentrations ([21]; rat, in vivo): not effected
- renal GST-alpha subunit expression [22]: increase
- renal cytochrome P4502E1 expression [22]: did not alter

Molecule: O=P1(NCCCl)OCCCN1CCCl (centres unmarked) [ifosfamide, Ifosfamide]
- patients who developed nephrotoxicity [23]: seven
- body weight and hematocrit versus control rats [24]: significantly lower
- clearance rate of creatinine [25]: decreased
- serum creatinine and urea levels [25]: elevated

Molecule: NCCC(O)(P(=O)(O)O)P(=O)(O)O [pamidronate, Pamidronate]
- body weight [26]: significant weight loss
- creatinine clearance [26]: decrease
- renal toxicity at the recommended dose [27]: rare

Molecule: N=C(N)c1ccc(OCCCCCOc2ccc(C(=N)N)cc2)cc1 [pentamidine, Pentamidine]
- tubular toxicity [28]: dose-related and reversible

Molecule: CC(=N)S [thioacetamide, Thioacetamide]
- serum total bilirubin, aspartate aminotransferase, alanine aminotransferase, BUN, creatinine and TNFα [29]: elevated

Molecule: Carboplatin
- renal damage compared with cisplatin [11]: less damage than cisplatin
- renal injury [11]: induced renal injury
- CGT excretion [30]: increased approximately two-fold

Molecule: gentamicin
- gamma-glutamyl transpeptidase activity in urine [31]: increase
